Experimental data taken from patent publication US9695155B2, “Herbicidal substituted pyrimidinyloxy benzene compounds” (E. I. DU PONT DE NEMOURS AND COMPANY, priority 2013, dated 2017).

Key:
corn [1] = assay: Test C preemergence; type: in vivo, Zea mays
In short: (§1)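 Rated visually on 0–100 (100 = complete control) after 13–15 days under glass. Treatments went onto freshly seeded loam/sand soil or onto emerged plants at the 1- to 4-leaf stage, using a surfactant-containing solvent formulation.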

lambsquarters = assay: Test C preemergence; type: in vivo, Chenopodium album
In short: as §1

large (Lg) crabgrass = assay: Test C preemergence; type: in vivo, Digitaria sanguinalis
In short: as §1

corn [2] = assay: Test A postemergence; type: in vivo, Zea mays
In short: (§2)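 Injury scores run from 0, no effect, to 100, complete control, judged by eye against untreated plants roughly 10 days after treatment. Chemicals carried a surfactant in a non-phytotoxic solvent and went onto loam–sand soil preemergence or onto one- to two-leaf seedlings postemergence.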

pigweed = assay: Test C preemergence; type: in vivo, Amaranthus retroflexus
Text: Seeds of plant species selected from blackgrass (Alopecurus myosuroides), Italian ryegrass (Lolium multiflorum), wheat, winter (winter wheat, Triticum aestivum), galium (catchweed bedstraw, Galium aparine), corn (Zea mays), large (Lg) crabgrass (Digitaria sanguinalis), giant foxtail (Setaria faberii), johnsongrass (Sorghum halepense), lambsquarters (Chenopodium album), morningglory (Ipomoea coccinea), yellow nutsedge (Cyperus esculentus), pigweed (Amaranthus retroflexus), ragweed (common ragweed, Ambrosia elatior), soybean (Glycine max), barnyardgrass (Echinochloa crus-galli), oilseed rape (Brassica napus), waterhemp (common waterhemp, Amaranthus rudis), kochia (Kochia scoparia), wild oat (Avena fatua), surinam grass (Brachiaria decumbens), foxtail, green (green foxtail, Setaria viridis), goosegrass (Eleusine indica), bromegrass, downy (downy bromegrass, Bromus tectorum), nightshade (eastern black nightshade, Solanum ptycanthum), cocklebur (common cocklebur, Xanthium strumarium), cupgrass, woolly (woolly cupgrass, Eriochloa villosa), bermudagrass (Cynodon dactylon), sunflower, (common oilseed sunflower, Helianthus annuus), Russian thistle (Salsola kali), and velvetleaf (Abutilon theophrasti) were planted into a blend of loam soil and sand and treated preemergence with test chemicals formulated in a non-phytotoxic solvent mixture which included a surfactant.
At the same time, plants selected from these crop and weed species and also barley, winter (winter barley, Hordeum vulgare), windgrass (Apera spica-venti), chickweed (common chickweed, Stellaria media), deadnettle (henbit deadnettle, Lamium amplexicaule), and canarygrass (littleseed canarygrass, Phalaris minor) were planted in pots containing Redi-Earth® planting medium (Scotts Company, 14111 Scottslawn Road, Marysville, Ohio 43041) comprising spaghnum peat moss, vermiculite, wetting agent and starter nutrients and treated with postemergence applications of test chemicals formulated in the same manner. Plants ranged in height from 2 to 18 cm (1- to 4-leaf stage) for postemergence treatments. Treated plants and controls were maintained in a greenhouse for 13 to 15 days, after which time all species were compared to controls and visually evaluated. Plant response ratings, summarized in Table C, are based on a scale of 0 to 100 where 0 is no effect and 100 is complete control. A dash (-) response means no test result.

giant foxtail = assay: Test A postemergence; type: in vivo, Setaria faberii
In short: as §2

[3] = 16 g ai/ha, preemergence, scale 0 to 100 (0 no effect, 100 complete control)
[4] = 125 g ai/ha, preemergence, scale 0 (no effect) to 100 (complete control)
[5] = Preemergence, 62 g ai/ha, scale 0 to 100, 0 no effect, 100 complete control
[6] = 31 g ai/ha, 0 to 100 scale, 0 no effect, 100 complete control
[7] = 125 g ai/ha, 0 to 100 scale, 0 no effect, 100 complete control

FCc1cccc(Oc2ncc(Cl)cn2)c1-n1cc(Cl)cn1 [Compound 250]
Corn plant response rating (corn [1]; [3]): 0 | Corn plant response rating (corn [1]; [4]): 10 | Plant response rating, Corn (corn [1]; [5]): 0 | Lambsquarters plant response rating (lambsquarters; [3]): 90 | Lambsquarters plant response rating (lambsquarters; [4]): 100 | Plant response rating, Lambsquarters (lambsquarters; [5]): 100 | Crabgrass, Large plant response rating (large (Lg) crabgrass; [3]): 75 | Crabgrass, Large plant response rating (large (Lg) crabgrass; [4]): 100 | Plant response rating, Crabgrass, Large (large (Lg) crabgrass; [5]): 98 | Plant response rating, Corn (corn [2]; [6]): 10 | Plant response rating, Corn (corn [2]; [7]): 30 | Pigweed plant response rating (pigweed; [3]): 85 | Pigweed plant response rating (pigweed; [4]): 100 | Plant response rating, Pigweed (pigweed; [5]): 100 | Plant response rating, Foxtail, Giant (giant foxtail; [6]): 10 | Plant response rating, Foxtail, Giant (giant foxtail; [7]): 80

N#Cc1cccc(Oc2ncc(Cl)cn2)c1-n1cnc(C(F)(F)F)c1 [Compound 252, 3-[(5-chloro-2-pyrimidinyl)oxy]-2-[4-(trifluoromethyl)-1H-imidazol-1-yl]benzonitrile]
plant injury at 16 g/ha (corn [1]; Zea mays, pre-emergence, 16 g ai/ha, preemergence, scale 0 to 100 (0 no effect, 100 complete control), read-out: Corn plant response rating): 10% | plant injury at 125 g/ha (corn [1]; Zea mays, pre-emergence, 125 g ai/ha, preemergence, scale 0 (no effect) to 100 (complete control), read-out: Corn plant response rating): 70% | Corn plant response rating (crop injury, 0 = no effect, 100 = complete kill) at 62 g/ha (corn [1]; Zea mays, pre-emergence, Preemergence, 62 g ai/ha, scale 0 to 100, 0 no effect, 100 complete control): 40% | pest or weed control at 16 g/ha (lambsquarters; Chenopodium album, pre-emergence, 16 g ai/ha, preemergence, scale 0 to 100 (0 no effect, 100 complete control), read-out: Lambsquarters plant response rating): 98% | pest or weed control at 125 g/ha (lambsquarters; Chenopodium album, pre-emergence, 125 g ai/ha, preemergence, scale 0 (no effect) to 100 (complete control), read-out: Lambsquarters plant response rating): 100% | pest or weed control at 62 g/ha (lambsquarters; Chenopodium album, pre-emergence, Preemergence, 62 g ai/ha, scale 0 to 100, 0 no effect, 100 complete control, read-out: Plant response rating, Lambsquarters): 100% | pest or weed control at 16 g/ha (large (Lg) crabgrass; Digitaria sanguinalis, pre-emergence, 16 g ai/ha, preemergence, scale 0 to 100 (0 no effect, 100 complete control), read-out: Crabgrass, Large plant response rating): 60% | pest or weed control at 125 g/ha (large (Lg) crabgrass; Digitaria sanguinalis, pre-emergence, 125 g ai/ha, preemergence, scale 0 (no effect) to 100 (complete control), read-out: Crabgrass, Large plant response rating): 100% | pest or weed control at 62 g/ha (large (Lg) crabgrass; Digitaria sanguinalis, pre-emergence, Preemergence, 62 g ai/ha, scale 0 to 100, 0 no effect, 100 complete control, read-out: Plant response rating, Crabgrass, Large): 100% | Corn plant response rating (crop injury, 0 = no effect, 100 = complete kill) at 31 g/ha (corn [2]; Zea mays, post-emergence, 240 h, 31 g ai/ha, 0 to 100 scale, 0 no effect, 100 complete control): 20% | Corn plant response rating (crop injury, 0 = no effect, 100 = complete kill) at 125 g/ha (corn [2]; Zea mays, post-emergence, 240 h, 125 g ai/ha, 0 to 100 scale, 0 no effect, 100 complete control): 60% | Corn plant response rating (crop injury, 0 = no effect, 100 = complete kill) at 500 g/ha (corn [2]; Zea mays, post-emergence, 240 h, 500 g ai/ha, 0 to 100 scale where 0 is no effect and 100 is complete control): 90% | pest or weed control at 16 g/ha (pigweed; Amaranthus retroflexus, pre-emergence, 16 g ai/ha, preemergence, scale 0 to 100 (0 no effect, 100 complete control), read-out: Pigweed plant response rating): 98% | pest or weed control at 125 g/ha (pigweed; Amaranthus retroflexus, pre-emergence, 125 g ai/ha, preemergence, scale 0 (no effect) to 100 (complete control), read-out: Pigweed plant response rating): 100% | pest or weed control at 62 g/ha (pigweed; Amaranthus retroflexus, pre-emergence, Preemergence, 62 g ai/ha, scale 0 to 100, 0 no effect, 100 complete control, read-out: Plant response rating, Pigweed): 100% | pest or weed control at 31 g/ha (giant foxtail; Setaria faberi, post-emergence, 240 h, 31 g ai/ha, 0 to 100 scale, 0 no effect, 100 complete control, read-out: Plant response rating, Foxtail, Giant): 20% | pest or weed control at 125 g/ha (giant foxtail; Setaria faberi, post-emergence, 240 h, 125 g ai/ha, 0 to 100 scale, 0 no effect, 100 complete control, read-out: Plant response rating, Foxtail, Giant): 100% | pest or weed control at 500 g/ha (giant foxtail; Setaria faberi, post-emergence, 240 h, 500 g ai/ha, 0 to 100 scale where 0 is no effect and 100 is complete control, read-out: Plant response rating, Foxtail, Giant): 100%

Fc1cccc(Oc2ncc(Cl)cn2)c1-n1cc(OCC(F)(F)F)cn1 [Compound 270]
Corn plant response rating (corn [1]; [3]): 0 | Corn plant response rating (corn [1]; [4]): 55 | Plant response rating, Corn (corn [1]; [5]): 20 | Lambsquarters plant response rating (lambsquarters; [3]): 80 | Lambsquarters plant response rating (lambsquarters; [4]): 100 | Plant response rating, Lambsquarters (lambsquarters; [5]): 100 | Crabgrass, Large plant response rating (large (Lg) crabgrass; [3]): 50 | Crabgrass, Large plant response rating (large (Lg) crabgrass; [4]): 100 | Plant response rating, Crabgrass, Large (large (Lg) crabgrass; [5]): 100 | Plant response rating, Corn (corn [2]; [6]): 20 | Plant response rating, Corn (corn [2]; [7]): 50 | Pigweed plant response rating (pigweed; [3]): 100 | Pigweed plant response rating (pigweed; [4]): 100 | Plant response rating, Pigweed (pigweed; [5]): 100 | Plant response rating, Foxtail, Giant (giant foxtail; [6]): 10 | Plant response rating, Foxtail, Giant (giant foxtail; [7]): 90
